What follows are compounds tested against T1, ligand binding domain of human RORγ (A262-S507) (Homo sapiens, UniProt P51449) (assay: General RORγ SPA binding assay (competition with [3H]25-hydroxycholesterol)). Settings: RORγ SPA binding assay, inhibition of [3H]25-hydroxycholesterol binding; read-out: IC50.
T1 construct: made in house; host or cells: E. coli
T1 sequence (P51449 262-507): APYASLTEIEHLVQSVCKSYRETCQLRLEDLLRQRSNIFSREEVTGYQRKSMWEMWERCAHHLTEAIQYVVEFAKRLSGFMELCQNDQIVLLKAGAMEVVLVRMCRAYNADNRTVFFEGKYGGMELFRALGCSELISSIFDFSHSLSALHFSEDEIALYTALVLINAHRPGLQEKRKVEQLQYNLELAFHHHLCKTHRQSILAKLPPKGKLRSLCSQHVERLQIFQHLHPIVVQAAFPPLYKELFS
Procedure, shortened: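 Scintillation counts from copper His-tag SPA beads (4 mg/mL, 30 min) gave percent inhibition of radioligand binding, from which IC50 values are derived. The E. coli-expressed His-tagged domain (50 nM) is first exposed to compound for 15 min at room temperature in PBS containing 0.5% fatty acid free BSA.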
For `COc1ncc(C(=O)NCc2ccc(Cl)c(Cl)c2)c(C2CCN(C(=O)Cc3c(F)cccc3F)CC2)n1` [Compound A86, N-(3,4-dichlorobenzyl)-4-(1-(2-(2,6-difluorophenyl)acetyl)piperidin-4-yl)-2-methoxypyrimidine-5-carboxamide], the IC50 was 7 nM. For `O=C(NCc1cccc(Cl)c1)c1cnc(NCCO)nc1C1CCN(C(=O)Cc2c(F)cccc2F)CC1` [Compound A87, N-(3-chlorobenzyl)-4-(1-(2-(2,6-difluorophenyl)acetyl)piperidin-4-yl)-2-((2-hydroxyethyl)amino)pyrimidine-5-carboxamide], the IC50 was 1.7 nM. With `CN(C)c1ncc(C(=O)NCc2cccc(Cl)c2)c(C2CCN(C(=O)Cc3c(F)cccc3F)CC2)n1` [Compound A88, N-(3-chlorobenzl)-4-(1-(2-(2,6-difluorophenyl)acetyl)piperidin-4-yl)-2-(dimethylamino)pyrimidine-5-carboxamide] the IC50 was 5.4 nM. Work on `Nc1ncc(C(=O)NCc2cccc(Cl)c2)c(C2CCN(C(=O)Cc3c(F)cccc3F)CC2)n1` [Compound A89, 2-amino-N-(3-chlorobenzyl)-4-(1-(2-(2,6-difluorophenyl)acetyl)piperidin-4-yl)pyrimidine-5-carboxamide] yielded an IC50 of 5.8 nM. `CNc1ncc(C(=O)NCc2cccc(Cl)c2)c(C2CCN(C(=O)Cc3c(F)cccc3F)CC2)n1` [Compound A90, N-(3-chlorobenzyl)-4-(1-(2-(2,6-difluorophenyl)acetyl)piperidin-4-yl)-2-(methylamino)pyrimidine-5-carboxamide] was tested, and the IC50 was 6.3 nM. `CCNc1ncc(C(=O)NCc2cccc(Cl)c2)c(C2CCN(C(=O)Cc3c(F)cccc3F)CC2)n1` [Compound A91, N-(3-chlorobenzyl)-4-(1-(2-(2,6-difluorophenyl)acetyl)piperidin-4-yl)-2-(ethylamino)pyrimidine-5-carboxamide] showed an IC50 of 6.7 nM. `COc1ncc(C(=O)NCc2cccc(Cl)c2)c(C2CCN(C(=O)Cc3c(F)cccc3F)CC2)n1` [Compound A92, N-(3-chlorobenzyl)-4-(1-(2-(2,6-difluorophenyl)acetyl)piperidin-4-yl)-2-methoxypyrimidine-5-carboxamide] was tested, and the IC50 was 10 nM. Work on `CCOc1ncc(C(=O)NCc2cccc(Cl)c2)c(C2CCN(C(=O)Cc3c(F)cccc3F)CC2)n1` [Compound A93, N-(3-chlorobenzyl)-4-(1-(2-(2,6-difluorophenyl)acetyl)piperidin-4-yl)-2-ethoxypyrimidine-5-carboxamide] yielded an IC50 of 16 nM. Work on `CC(C)Nc1ncc(C(=O)NCc2cccc(Cl)c2)c(C2CCN(C(=O)Cc3c(F)cccc3F)CC2)n1` [Compound A94, N-(3-chlorobenzyl)-4-(1-(2-(2,6-difluorophenyl)acetyl)piperidin-4-yl)-2-(isopropylamino)pyrimidine-5-carboxamide] yielded an IC50 of 25.4 nM. `CC(C)Oc1ncc(C(=O)NCc2cccc(Cl)c2)c(C2CCN(C(=O)Cc3c(F)cccc3F)CC2)n1` [Compound A95, N-(3-chlorobenzyl)-4-(1-(2-(2,6-difluorophenyl)acetyl)piperidin-4-yl)-2-isopropoxypyrimidine-5-carboxamide] was tested, and the IC50 was 175 nM. `NCCNc1ncc(C(=O)NCc2cccc(Cl)c2)c(C2CCN(C(=O)Cc3c(F)cccc3F)CC2)n1` [Compound A96, 2-((2-aminoethyl)amino)-N-(3-chlorobenzyl)-4-(1-(2-(2,6-difluorophenyl)acetyl)piperidin-4-yl)pyrimidine-5-carboxamide] showed an IC50 of 202 nM. `CN(C)CCNc1ncc(C(=O)NCc2cccc(Cl)c2)c(C2CCN(C(=O)Cc3c(F)cccc3F)CC2)n1` [Compound A97, N-(3-chlorobenzyl)-4-(1-(2-(2,6-difluorophenyl)acetyl)piperidin-4-yl)-2-((2-(dimethylamino)ethyl)amino) pyrimidine-5-carboxamide] showed an IC50 of 290 nM. Work on `O=C(NCc1cccc(Cl)c1)c1cnc(O)nc1C1CCN(C(=O)Cc2c(F)cccc2F)CC1` [Compound A98, N-(3-chlorobenzyl)-4-(1-(2-(2,6-difluorophenyl)acetyl)piperidin-4-yl)-2-hydroxypyrimidine-5-carboxamide] yielded an IC50 of 398 nM. With `Cc1cc(C)cc(CNC(=O)c2cnc(C)nc2C2CCN(CCc3c(F)cccc3F)CC2)c1` [Compound A99, 4-(1-(2,6-difluorophenethyl)piperidin-4-yl)-N-(3,5-dimethylbenzyl)-2-methylpyrimidine-5-carboxamide] the IC50 was 58 nM. With `Cc1cc(C)cc(CNC(=O)c2cnc(C)nc2C2CCN(CCc3ccccc3Cl)CC2)c1` [Compound A100, 4-(1-(2-chlorophenethyl)piperidin-4-yl)-N-(3,5-dimethylbenzyl)-2-methylpyrimidine-5-carboxamide] the IC50 was 433 nM. `Cc1cc(C)cc(CNC(=O)c2cnc(C)nc2C2CCN(CCc3ccccc3)CC2)c1` [Compound A101, N-(3,5-dimethylbenzyl)-2-methyl-4-(1-phenethylpiperidin-4-yl)pyrimidine-5-carboxamide] gave an IC50 of 634 nM. For `Cc1ncc(C(=O)NCc2cccc(Cl)c2)c(C2(C)CCN(C(=O)Cc3c(F)cccc3F)CC2)n1` [Compound A102, N-(3-Chlorobenzyl)-4-(1-(2-(2,6-difluorophenyl)acetyl)-4-methylpiperidin-4-yl)-2-methylpyrimidine-5-carb oxamide], the IC50 was 1730 nM. In the case of `Cc1ncc(C(=O)NCc2cccc(Cl)c2)c(C2(F)CCN(C(=O)Cc3c(F)cccc3F)CC2)n1` [Compound A103, N-(3-Chlorobenzyl)-4-(1-(2-(2,6-difluorophenyl)acetyl)-4-fluoropiperidin-4-yl)-2-methylpyrimidine-5-carboxamide], the IC50 is reported as 3.4 nM. With `Cc1ncc(C(=O)NCc2cccc(C(F)(F)F)n2)c(C2(F)CCN(C(=O)Cc3c(F)cccc3F)CC2)n1` [Compound A104, 4-(1-(2-(2,6-difluorophenyl)acetyl)-4-fluoropiperidin-4-yl)-2-methyl-N-((6-(trifluoromethyl)pyridin-2-yl)methyl)pyrimidine-5-carboxamide] the IC50 was 231 nM. With `Cc1cc(C)cc(CNC(=O)c2cnc(C)nc2C2(F)CCN(C(=O)Cc3c(F)cccc3F)CC2)c1` [Compound A105, 4-(1-(2-(2,6-difluorophenyl)acetyl)-4-fluoropiperidin-4-yl)-N-(3,5-dimethylbenzyl)-2-methylpyrimidine-5-carboxamide] the IC50 was 551 nM. With `Cc1cc(C)cc(CNC(=O)c2cnc(C)nc2C2CCN(C(=O)Nc3ccccc3F)CC2)c1` [Compound A106, N-(3,5-Dimethylbenzyl)-4-(1-((2-fluorophenyl)carbamoyl)piperidin-4-yl)-2-methylpyrimidine-5-carboxamide] the IC50 was 270 nM. Compound `Cc1cc(C)cc(CNC(=O)c2cnc(C)nc2C2CCN(C(=O)Nc3c(F)cccc3F)CC2)c1` [Compound A107, 4-(1-((2,6-Difluorophenyl)carbamoyl)piperidin-4-yl)-N-(3,5-dimethylbenzyl)-2-methylpyrimidine-5-carboxamide] has an IC50 of 12.1 nM. With `CNc1nc(C)nc(C2CCN(C(=O)Cc3c(F)cccc3F)CC2)c1C(=O)NCc1cc(C)cc(C)c1` [Compound A108, 4-(1-(2-(2,6-Difluorophenyl)acetyl)piperidin-4-yl)-N-(3,5-dimethylbenzyl)-2-methyl-6-(methylamino)pyrimidine-5-carboxamide] the IC50 was 21.7 nM. `CNc1nc(C)nc(C2CCN(C(=O)Cc3c(F)cccc3F)CC2)c1C(=O)NCc1cccc(Cl)c1` [Compound A109] gave an IC50 of 7.3 nM. For `Cc1ncc(C(=O)NC(CO)c2cccc(Cl)c2)c(C2CCN(C(=O)Cc3c(F)cccc3F)CC2)n1` (stereo not shown) [Compound A110, N-(1-(3-Chlorophenyl)-2-hydroxyethyl)-4-(1-(2-(2,6-difluorophenyl)acetyl)piperidin-4-yl)-2-methylpyrimidine-5-carboxamide], the IC50 was 1440 nM. In the case of `COc1nc(C)nc(C2CCN(C(=O)Cc3c(F)cccc3F)CC2)c1C(=O)NCc1cccc(Cl)c1` [Compound A111, N-(3-Chlorobenzyl)-4-(1-(2-(2,6-difluorophenyl)acetyl)piperidin-4-yl)-6-methoxy-2-methylpyrimidine-5-carboxamide], the IC50 is reported as 9.8 nM. For `Cc1cc(C)cc(CNC(=O)c2c(C3CCN(C(=O)Cc4c(F)cccc4F)CC3)nc(C)nc2C(F)(F)F)c1` [Compound A112, 4-(1-(2-(2,6-Difluorophenyl)acetyl)piperidin-4-yl)-N-(3,5-dimethylbenzyl)-2-methyl-6-(trifluoromethyl)pyrimidine-5-carboxamide], the IC50 was 33.6 nM. `Cc1cc(C)cc(CN(C)C(=O)c2cnc(C)nc2C2CCN(C(=O)Cc3c(F)cccc3F)CC2)c1` [Compound A113, 4-(1-(2-(2,6-Difluorophenyl)acetyl)piperidin-4-yl)-N-(3,5-dimethylbenzyl)-N,2-dimethylpyrimidine-5-carboxamide] showed an IC50 of 338 nM. `Cc1cc(C)cc(CNC(=O)c2cnc(C)nc2C2C=CN(C(=O)Cc3c(F)cccc3F)CC2)c1` (stereo not shown) [Compound A114, 4-(1-(2-(2,6-Difluorophenyl)acetyl)-1,2,3,4-tetrahydropyridin-4-yl)-N-(3,5-dimethylbenzyl)-2-methylpyrimidine-5-carboxamide] showed an IC50 of 3 nM. `Cc1cc(C)cc(CNC(=O)c2cnc(C)nc2C2CCN(CC(=O)c3ccccc3Cl)CC2)c1` [Compound A115, 4-(1-(2-(2-Chlorophenyl)-2-oxoethyl)piperidin-4-yl)-N-(3,5-dimethylbenzyl)-2-methylpyrimidine-5-carboxamide] gave an IC50 of 342 nM. Work on `Cc1cc(C)cc(CNC(=O)c2cnc(C)nc2C2CCN(C(=O)C(F)(F)c3c(F)cccc3F)CC2)c1` [Compound A116, 4-{1-[(2,6-Difluorophenyl)(difluoro)acetyl]piperidin-4-yl}-N-[(3,5-dimethylphenyl)methyl]-2-methylpyrimidine-5-carboxamide] yielded an IC50 of 37.1 nM.
